US9302999B2, “Substituted triazoles as herbicides” (E. I. DU PONT DE NEMOURS AND COMPANY, priority 2012, dated 2016)

What was measured:
Format in all cases: in vivo
[1] = test system: ducksalad (Heteranthera limosa); experiment: Test C flooded paddy test: ducksalad; conditions: scale 0 to 100 (0 no effect, 100 complete control)
Procedure, shortened: (§1)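 Greenhouse plants treated at the 2-leaf stage by dosing the flood water (3 cm depth, maintained) were compared with controls after 13 to 15 days and rated 0 to 100, where 100 means complete control; a dash marks no test result.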

[2] = test system: foxtail, giant (giant foxtail, Setaria faberii); experiment: Test A pre-/postemergence: foxtail, giant
Procedure, shortened: (§2)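 Pre: directed soil spray after planting in loam + sand. Post: same formulation (non-phytotoxic solvent + surfactant) on 1–2-leaf plants, 2–10 cm. Greenhouse ~10 d; visual injury 0–100 vs untreated.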

[3] = test system: crabgrass, large (large crabgrass, Digitaria sanguinalis); experiment: Test A pre-/postemergence: crabgrass, large
Procedure, shortened: as §2

[4] = test system: velvetleaf (Abutilon theophrasti); experiment: Test A pre-/postemergence: velvetleaf
Procedure, shortened: as §2

rice (Oryza sativa) = experiment: Test C flooded paddy test: rice; conditions: scale 0 to 100 (0 no effect, 100 complete control)
Procedure, shortened: as §1

[5] = test system: wheat (Triticum aestivum); experiment: Test A pre-/postemergence: wheat
Procedure, shortened: as §2

[6] = test system: barnyardgrass (Echinochloa crus-galli); experiment: Test C flooded paddy test: barnyardgrass; conditions: scale 0 to 100 (0 no effect, 100 complete control)
Procedure, shortened: as §1

[7] = test system: morningglory (Ipomoea spp.); experiment: Test A pre-/postemergence: morningglory
Procedure, shortened: as §2

[8] = test system: pigweed (Amaranthus retroflexus); experiment: Test A pre-/postemergence: pigweed
Procedure, shortened: as §2

[9] = test system: barnyardgrass (Echinochloa crus-galli); experiment: Test A pre-/postemergence: barnyardgrass
Procedure, shortened: as §2

[10] = test system: sedge, umbrella (small-flower umbrella sedge, Cyperus difformis); experiment: Test C flooded paddy test: sedge, umbrella; conditions: scale 0 to 100 (0 no effect, 100 complete control)
Procedure, shortened: as §1

corn (Zea mays) = experiment: Test A pre-/postemergence: corn
Procedure, shortened: as §2

[11] = Flood (flooded paddy test), 125 g ai/ha, visual rating after 13 to 15 days
[12] = Flood (flooded paddy test), 250 g ai/ha, visual rating after 13 to 15 days
[13] = Postemergence, 125 g ai/ha, 0 to 100 scale, 0 is no effect, 100 is complete control
[14] = Postemergence, 500 g ai/ha, visual rating on 0 to 100 scale (0 no effect, 100 complete control), approximately ten days
[15] = Preemergence, 125 g ai/ha, 0 to 100 scale where 0 is no effect and 100 is complete control
[16] = Preemergence, 500 g ai/ha, 0 to 100 scale, 0 is no effect, 100 is complete control
[17] = Preemergence, 125 g ai/ha, 0 to 100 scale (0 no effect, 100 complete control)
[18] = Postemergence, 1000 g ai/ha, visual rating on 0 to 100 scale (0 no effect, 100 complete control), approximately ten days
[19] = Preemergence, 1000 g ai/ha, 0 to 100 scale, 0 is no effect, 100 is complete control

Structure (SMILES): Cc1nn(-c2ccc(F)cc2)nc1Oc1ccnc(C(F)(F)F)n1 [Compound 101]
- Plant response rating, Ducksalad [1, 11]: 50
- Plant response rating, Ducksalad [1, 12]: 65
- Plant response rating, Ducksalad ([1]; Flood, 31 g ai/ha): 0
- Plant response rating, Ducksalad ([1]; Flood, 62 g ai/ha): 20
- Foxtail, Giant plant response rating [2, 13]: 70
- Foxtail, Giant plant response rating [2, 14]: 90
- Plant response rating, Foxtail, Giant [2, 15]: 100
- Plant response rating, Foxtail, Giant [2, 16]: 100
- Crabgrass, Large plant response rating [3, 13]: 70
- Crabgrass, Large plant response rating [3, 14]: 90
- Plant response rating, Crabgrass, Large [3, 17]: 100
- Plant response rating, Crabgrass, Large [3, 16]: 100
- Velvetleaf plant response rating [4, 13]: 10
- Velvetleaf plant response rating [4, 14]: 20
- Plant response rating, Velvetleaf [4, 15]: 0
- Plant response rating, Velvetleaf [4, 16]: 0
- Plant response rating, Rice (rice (Oryza sativa); [11]): 15
- Plant response rating, Rice (rice (Oryza sativa); [12]): 20
- Plant response rating, Rice (rice (Oryza sativa); Flood, 31 g ai/ha): 0
- Plant response rating, Rice (rice (Oryza sativa); Flood, 62 g ai/ha): 0
- Wheat plant response rating [5, 13]: 0
- Wheat plant response rating [5, 14]: 10
- Plant response rating, Wheat [5, 15]: 0
- Plant response rating, Wheat [5, 16]: 0
- Plant response rating, Barnyardgrass [6, 11]: 55
- Plant response rating, Barnyardgrass [6, 12]: 60
- Plant response rating, Barnyardgrass ([6]; Flood, 31 g ai/ha): 0
- Plant response rating, Barnyardgrass ([6]; Flood, 62 g ai/ha): 0
- Morningglory plant response rating [7, 13]: 40
- Morningglory plant response rating [7, 14]: 40
- Plant response rating, Morningglory [7, 15]: 0
- Plant response rating, Morningglory [7, 16]: 10
- Pigweed plant response rating [8, 13]: 80
- Pigweed plant response rating [8, 14]: 90
- Plant response rating, Pigweed [8, 15]: 100
- Plant response rating, Pigweed [8, 16]: 100
- Barnyardgrass plant response rating [9, 13]: 20
- Barnyardgrass plant response rating [9, 14]: 60
- Plant response rating, Barnyardgrass [9, 17]: 50
- Plant response rating, Barnyardgrass [9, 16]: 80
- Plant response rating, Sedge, Umbrella [10, 11]: 50
- Plant response rating, Sedge, Umbrella [10, 12]: 75
- Plant response rating, Sedge, Umbrella ([10]; Flood, 31 g ai/ha): 0
- Plant response rating, Sedge, Umbrella ([10]; Flood, 62 g ai/ha): 0
- Corn plant response rating (corn (Zea mays); [13]): 10
- Corn plant response rating (corn (Zea mays); [14]): 20
- Plant response rating, Corn (corn (Zea mays); [17]): 0
- Plant response rating, Corn (corn (Zea mays); [16]): 10

Structure (SMILES): Cc1nn(-c2ccc(C(F)(F)F)cn2)nc1C(=O)c1cccc(C(F)(F)F)c1 [Compound 107]
- Plant response rating, Ducksalad [1, 11]: 20
- Plant response rating, Ducksalad [1, 12]: 40
- Plant response rating, Ducksalad ([1]; Flood, 31 g ai/ha): 0
- Plant response rating, Ducksalad ([1]; Flood, 62 g ai/ha): 0
- Foxtail, Giant plant response rating [2, 13]: 40
- Foxtail, Giant plant response rating [2, 14]: 90
- Plant response rating, Foxtail, Giant [2, 15]: 90
- Plant response rating, Foxtail, Giant [2, 16]: 100
- Crabgrass, Large plant response rating [3, 13]: 60
- Crabgrass, Large plant response rating [3, 14]: 90
- Plant response rating, Crabgrass, Large [3, 17]: 100
- Plant response rating, Crabgrass, Large [3, 16]: 100
- Velvetleaf plant response rating [4, 13]: 40
- Velvetleaf plant response rating [4, 14]: 50
- Plant response rating, Velvetleaf [4, 15]: 10
- Plant response rating, Velvetleaf [4, 16]: 10
- Plant response rating, Rice (rice (Oryza sativa); [11]): 0
- Plant response rating, Rice (rice (Oryza sativa); [12]): 25
- Plant response rating, Rice (rice (Oryza sativa); Flood, 31 g ai/ha): 0
- Plant response rating, Rice (rice (Oryza sativa); Flood, 62 g ai/ha): 0
- Wheat plant response rating [5, 13]: 20
- Wheat plant response rating [5, 14]: 40
- Plant response rating, Wheat [5, 15]: 0
- Plant response rating, Wheat [5, 16]: 0
- Plant response rating, Barnyardgrass [6, 11]: 20
- Plant response rating, Barnyardgrass [6, 12]: 25
- Plant response rating, Barnyardgrass ([6]; Flood, 31 g ai/ha): 0
- Plant response rating, Barnyardgrass ([6]; Flood, 62 g ai/ha): 15
- Morningglory plant response rating [7, 13]: 70
- Morningglory plant response rating [7, 14]: 80
- Plant response rating, Morningglory [7, 15]: 20
- Plant response rating, Morningglory [7, 16]: 30
- Pigweed plant response rating [8, 13]: 90
- Pigweed plant response rating [8, 14]: 100
- Plant response rating, Pigweed [8, 15]: 70
- Plant response rating, Pigweed [8, 16]: 100
- Barnyardgrass plant response rating [9, 13]: 30
- Barnyardgrass plant response rating [9, 14]: 60
- Plant response rating, Barnyardgrass [9, 17]: 30
- Plant response rating, Barnyardgrass [9, 16]: 80
- Plant response rating, Sedge, Umbrella [10, 11]: 60
- Plant response rating, Sedge, Umbrella [10, 12]: 80
- Plant response rating, Sedge, Umbrella ([10]; Flood, 31 g ai/ha): 0
- Plant response rating, Sedge, Umbrella ([10]; Flood, 62 g ai/ha): 40
- Corn plant response rating (corn (Zea mays); [13]): 20
- Corn plant response rating (corn (Zea mays); [14]): 30
- Plant response rating, Corn (corn (Zea mays); [17]): 0
- Plant response rating, Corn (corn (Zea mays); [16]): 10

Structure (SMILES): Cc1nn(-c2ccc(C(F)(F)F)cn2)nc1Oc1cccc(C(F)(F)F)c1 [Compound 109]
- Plant response rating, Ducksalad [1, 11]: 60
- Plant response rating, Ducksalad [1, 12]: 80
- Plant response rating, Ducksalad ([1]; Flood, 31 g ai/ha): 0
- Plant response rating, Ducksalad ([1]; Flood, 62 g ai/ha): 20
- Foxtail, Giant plant response rating [2, 18]: 90
- Foxtail, Giant plant response rating [2, 19]: 100
- Crabgrass, Large plant response rating [3, 18]: 90
- Crabgrass, Large plant response rating [3, 19]: 100
- Velvetleaf plant response rating [4, 18]: 80
- Velvetleaf plant response rating [4, 19]: 30
- Plant response rating, Rice (rice (Oryza sativa); [11]): 15
- Plant response rating, Rice (rice (Oryza sativa); [12]): 25
- Plant response rating, Rice (rice (Oryza sativa); Flood, 31 g ai/ha): 15
- Plant response rating, Rice (rice (Oryza sativa); Flood, 62 g ai/ha): 15
- Wheat plant response rating [5, 18]: 50
- Wheat plant response rating [5, 19]: 20
- Plant response rating, Barnyardgrass [6, 11]: 40
- Plant response rating, Barnyardgrass [6, 12]: 75
- Plant response rating, Barnyardgrass ([6]; Flood, 31 g ai/ha): 0
- Plant response rating, Barnyardgrass ([6]; Flood, 62 g ai/ha): 20
- Morningglory plant response rating [7, 18]: 90
- Morningglory plant response rating [7, 19]: 50
- Pigweed plant response rating [8, 18]: 100
- Pigweed plant response rating [8, 19]: 100
- Barnyardgrass plant response rating [9, 18]: 90
- Barnyardgrass plant response rating [9, 19]: 100
- Plant response rating, Sedge, Umbrella [10, 11]: 85
- Plant response rating, Sedge, Umbrella [10, 12]: 85
- Plant response rating, Sedge, Umbrella ([10]; Flood, 31 g ai/ha): 38
- Plant response rating, Sedge, Umbrella ([10]; Flood, 62 g ai/ha): 63
- Corn plant response rating (corn (Zea mays); [18]): 90
- Corn plant response rating (corn (Zea mays); [19]): 40
